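Briefly, cells in 96-well plates were exposed to five compound concentrations for 48 h, and endpoints were estimated by linear interpolation. GI50 marks 50% less growth.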 Calls of active or inactive are those of the source. Cut-off read from the data, not from the text of the source: active = GI50 up to about 1.1 µM and inactive = higher.
How the values were obtained:
Assay in all cases: NCI tumour cell line growth inhibition, 48 h
786-0 = tested on: 786-0
A498 = tested on: A498
A549 = tested on: A549
ACHN = tested on: ACHN
BT-549 = tested on: BT-549
CAKI-1 = tested on: CAKI-1
COLO 205 = tested on: COLO 205
DU-145 = tested on: DU-145
EKVX = tested on: EKVX
HCC 2998 = tested on: HCC 2998
HCT-116 = tested on: HCT-116
HCT-15 = tested on: HCT-15
HL-60 = tested on: HL-60
HOP-62 = tested on: HOP-62
HOP-92 = tested on: HOP-92
HT-29 = tested on: HT-29
Hs-578T = tested on: Hs-578T
IGROV-1 = tested on: IGROV-1
K562 = tested on: K562
KM12 = tested on: KM12
LOX IMVI = tested on: LOX IMVI
M14 = tested on: M14
MCF7 = tested on: MCF7
MDA-MB-231 = tested on: MDA-MB-231
MDA-MB-435 = tested on: MDA-MB-435
MDA-N = tested on: MDA-N
Malme-3M = tested on: Malme-3M
NCI-H226 = tested on: NCI-H226
NCI-H23 = tested on: NCI-H23
NCI-H460 = tested on: NCI-H460
NCI/ADR-RES = tested on: NCI/ADR-RES
OVCAR-3 = tested on: OVCAR-3
OVCAR-4 = tested on: OVCAR-4
OVCAR-5 = tested on: OVCAR-5
OVCAR-8 = tested on: OVCAR-8
PC-3 = tested on: PC-3
RPMI-8226 = tested on: RPMI-8226
RXF 393 = tested on: RXF 393
SF-268 = tested on: SF-268
SF-295 = tested on: SF-295
SF-539 = tested on: SF-539
SK-MEL-28 = tested on: SK-MEL-28
SK-MEL-2 = tested on: SK-MEL-2
SK-MEL-5 = tested on: SK-MEL-5
SK-OV-3 = tested on: SK-OV-3
SN12C = tested on: SN12C
SNB-19 = tested on: SNB-19
SNB-75 = tested on: SNB-75
SW-620 = tested on: SW-620
T47D = tested on: T47D
TK-10 = tested on: TK-10
U-251 = tested on: U-251
UACC-257 = tested on: UACC-257
UACC-62 = tested on: UACC-62
UO-31 = tested on: UO-31

COc1ccc(-c2cc(-c3ccccc3)c3c(n2)-c2ccccc2NC(=O)C3)cc1
GI50 (786-0): 29 µM (inactive) | GI50 (A498): > 100 µM (inactive) | GI50 (A549): 49.4 µM (inactive) | GI50 (ACHN): 35.1 µM (inactive) | GI50 (BT-549): > 100 µM (inactive) | GI50 (CAKI-1): 40.9 µM (inactive) | GI50 (COLO 205): > 100 µM (inactive) | GI50 (DU-145): > 100 µM (inactive) | GI50 (EKVX): 40.3 µM (inactive) | GI50 (HCC 2998): 53 µM (inactive) | GI50 (HCT-116): 25.5 µM (inactive) | GI50 (HCT-15): 17.7 µM | GI50 (HL-60): > 100 µM (inactive) | GI50 (HOP-62): 36 µM (inactive) | GI50 (HOP-92): 27 µM (inactive) | GI50 (HT-29): 12.1 µM (inactive) | GI50 (Hs-578T): 5.15 µM (inactive) | GI50 (IGROV-1): 13.8 µM (inactive) | GI50 (K562): 1.47 µM (inactive) | GI50 (KM12): 35.4 µM (inactive) | GI50 (LOX IMVI): 65.6 µM (inactive) | GI50 (M14): 71 µM (inactive) | GI50 (MCF7): 39.4 µM (inactive) | GI50 (MDA-MB-231): 25.4 µM (inactive) | GI50 (MDA-MB-435): > 100 µM (inactive) | GI50 (MDA-N): 30 µM (inactive) | GI50 (Malme-3M): 17.4 µM (inactive) | GI50 (NCI-H226): 58.2 µM (inactive) | GI50 (NCI-H23): > 100 µM (inactive) | GI50 (NCI-H460): 25.9 µM (inactive) | GI50 (NCI/ADR-RES): 36.5 µM (inactive) | GI50 (OVCAR-3): 30.1 µM (inactive) | GI50 (OVCAR-4): 3.64 µM (inactive) | GI50 (OVCAR-5): > 100 µM (inactive) | GI50 (OVCAR-8): 9.66 µM (inactive) | GI50 (PC-3): 28.3 µM (inactive) | GI50 (RPMI-8226): > 100 µM (inactive) | GI50 (RXF 393): 30.2 µM (inactive) | GI50 (SF-268): 23.7 µM (inactive) | GI50 (SF-295): 47.5 µM (inactive) | GI50 (SF-539): > 100 µM (inactive) | GI50 (SK-MEL-28): > 100 µM (inactive) | GI50 (SK-MEL-2): 32.7 µM (inactive) | GI50 (SK-MEL-5): 23.8 µM (inactive) | GI50 (SK-OV-3): 39.9 µM (inactive) | GI50 (SN12C): 58.6 µM (inactive) | GI50 (SNB-19): 34.7 µM (inactive) | GI50 (SNB-75): 1.19 µM (inactive) | GI50 (SW-620): > 100 µM (inactive) | GI50 (T47D): 74 µM (inactive) | GI50 (TK-10): 41.8 µM (inactive) | GI50 (U-251): 22.5 µM (inactive) | GI50 (UACC-257): > 100 µM (inactive) | GI50 (UACC-62): 98.2 µM (inactive) | GI50 (UO-31): > 100 µM (inactive)
